Patent US5854388A, “Angiotensin IV peptides and receptor” (Washington State University Research Foundation, priority 1994, dated 1998)
“Also recorded” adds a separate entry of the source. Like-named read-outs stand apart in the source and are kept apart here. Positions of bridges follow the written chain, without caps; N, C: chain ends. Non-standard residues stand in square brackets, D forms with d. Residues, ends and D or L forms follow the SMILES beside them. No end group written: not given here. *: point of attachment. Ileψ(thiazoline)Cys = CC[C@H](C)[C@H](N)C1=N[C@H](C(=O)*)CS1; NMeI = CC[C@H](C)[C@H](NC)C(=O)O; dOrn = NCCC[C@@H](N)C(=O)O; Nle = CCCC[C@H](N)C(=O)O; Orn = NCCC[C@H](N)C(=O)O; GABA = NCCCC(=O)O

Legend:
[1] = target: T1, AT4 receptor (Bos taurus, UniProt F1N1Q8); experiment: 125I-AIV binding and competition, bovine adrenal cortical membranes
T1 sequence (F1N1Q8 1-1022): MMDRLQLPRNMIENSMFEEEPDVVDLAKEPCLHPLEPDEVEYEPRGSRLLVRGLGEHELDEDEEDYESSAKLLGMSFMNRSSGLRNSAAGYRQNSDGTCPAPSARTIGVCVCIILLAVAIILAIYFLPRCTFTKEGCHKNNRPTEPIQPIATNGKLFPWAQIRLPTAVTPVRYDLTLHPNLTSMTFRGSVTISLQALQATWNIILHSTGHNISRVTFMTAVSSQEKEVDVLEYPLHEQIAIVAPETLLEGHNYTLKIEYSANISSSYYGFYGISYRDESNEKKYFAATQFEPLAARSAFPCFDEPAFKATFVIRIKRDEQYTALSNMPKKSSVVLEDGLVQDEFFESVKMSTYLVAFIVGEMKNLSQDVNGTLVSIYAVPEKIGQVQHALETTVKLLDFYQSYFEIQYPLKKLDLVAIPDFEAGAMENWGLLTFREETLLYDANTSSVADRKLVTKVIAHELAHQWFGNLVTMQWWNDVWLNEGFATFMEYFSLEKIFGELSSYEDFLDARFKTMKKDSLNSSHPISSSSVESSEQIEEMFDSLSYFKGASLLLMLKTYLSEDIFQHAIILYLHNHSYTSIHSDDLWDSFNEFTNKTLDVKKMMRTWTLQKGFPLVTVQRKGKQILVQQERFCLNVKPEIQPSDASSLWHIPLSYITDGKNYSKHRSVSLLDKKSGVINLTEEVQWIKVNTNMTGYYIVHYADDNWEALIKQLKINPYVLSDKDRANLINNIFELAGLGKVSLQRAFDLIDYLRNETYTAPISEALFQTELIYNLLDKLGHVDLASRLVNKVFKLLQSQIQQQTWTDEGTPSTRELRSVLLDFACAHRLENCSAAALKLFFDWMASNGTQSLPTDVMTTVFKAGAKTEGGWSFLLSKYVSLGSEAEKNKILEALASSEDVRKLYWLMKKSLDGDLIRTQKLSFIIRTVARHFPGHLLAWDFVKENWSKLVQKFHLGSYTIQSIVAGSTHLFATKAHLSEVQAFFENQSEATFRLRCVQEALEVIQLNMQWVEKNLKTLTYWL

[2] = target: T2, AT1 receptor (AII receptor) (Bos taurus, UniProt P25104); type: binding, bovine; settings: competition
T2 construct: from tissue; host or cells: bovine adrenal cortex membranes
T2 sequence (P25104 1-359): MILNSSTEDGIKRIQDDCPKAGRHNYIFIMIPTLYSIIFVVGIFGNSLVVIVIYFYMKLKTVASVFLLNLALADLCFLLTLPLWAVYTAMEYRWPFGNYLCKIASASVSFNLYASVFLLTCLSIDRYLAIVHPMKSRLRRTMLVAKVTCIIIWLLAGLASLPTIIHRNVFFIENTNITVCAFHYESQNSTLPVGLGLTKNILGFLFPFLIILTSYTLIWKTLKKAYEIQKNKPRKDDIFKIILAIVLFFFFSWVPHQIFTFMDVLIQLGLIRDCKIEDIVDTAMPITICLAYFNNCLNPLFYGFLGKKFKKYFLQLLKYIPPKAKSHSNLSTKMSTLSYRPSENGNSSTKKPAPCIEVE

[3] = target: T1, AT4 receptor; experiment: 125I-AIV binding and competition, solubilized bovine adrenal cortical receptor
[4] = target: T1, AT4 receptor; experiment: 125I-AIV binding and competition, coronary venular endothelial cell (CVEC) membranes; design: species or system bovine
[5] = tested on: rat kidney; experiment: Renal cortical blood flow (laser doppler) and arterial pressure after infusion into the renal artery; type: in vivo
[6] = Metabolism by rat kidney membranes / homogenates
[7] = arterial and venous blood in man; cited from earlier work
[8] = read-out: 125I-AIV Binding (Ki)

**Q.** With PYIHPF as the molecule, how does the “decrease in binding affinity relative to AIV” value [1] read?
**A.** 8 fold

**Q.** Which “binding affinity for the AT4 receptor (in words)” value (from here on “binding affinity … (in words)”) [1] does the source give for KYIHPI [KYIHPI6] here?
**A.** lower affinity than the parent KYIHPF6

**Q.** And the “binding affinity … (in words)” value ([1]; listed as Lys1 Ile6 -AIV)?
**A.** lower affinity than Lys1 -AIV

**Q.** With `CCCCc1nc(Cl)c(CO)n1Cc1ccc(-c2ccccc2-c2nn[nH]n2)cc1` [DuP 753, reference compound] as the molecule, how does the Ki [1, 8] read?
**A.** > 100000 nM

**Q.** What about the Ki [2] of the same molecule?
**A.** 31 nM

**Q.** And the Ki [3]?
**A.** > 100000 nM

**Q.** What about the Ki ([4]; unit inferred) of the same molecule?
**A.** > 100000 nM

**Q.** For DYIHPF, which Kd [1] is on record?
**A.** > 1000 nM

**Q.** What about the “binding affinity … (in words)” value [1] of the same molecule?
**A.** virtually no affinity

**Q.** For `CC[C@H](C)[C@H](N)C1=N[C@H](C(=O)N[C@@H](CC(C)C)C(=O)N[C@H](CCC(=O)O)C(=O)N[C@H](C(=O)N[C@H]2CCCCNC(=O)[C@H](CC(N)=O)NC(=O)[C@@H](CC(=O)O)NC(=O)[C@H](Cc3cnc[nH]3)NC(=O)[C@@H](Cc3ccccc3)NC(=O)[C@H]([C@@H](C)CC)NC(=O)[C@@H](CCCN)NC2=O)[C@@H](C)CC)CS1` [Bacitracin, ICLEIKOIFHDD, reference compound] ({Ileψ(thiazoline)Cys}-L[dE]IK[dOrn]I[dF]H[dD]N; lactam 4-C), which “effect on binding of AIV ligand to the AT4 receptor” value [1] is on record?
**A.** inhibited

**Q.** With “^+ H3 N-Val(CH2 NH)Tyr-Val(CH2 NH)-His-Pro-Phe-COO^- (H-VYVHPF-OH; also: reduced CH2-NH bonds: Val1-Tyr2, Val3-His4) [Val1 Val3 AIV]” as the molecule, how does the “binding affinity … (in words)” value [1] read?
**A.** affinity equal to or better than VYIHPF; also recorded: equal or better affinity than AIV

**Q.** What about the Ki ([3]; read-out: Ki) of the same molecule?
**A.** 1.29 nM

**Q.** And the “agonist / antagonist activity (in words)” value ([5]; rat, in vivo)?
**A.** potent antagonist of AT4 receptor activity

**Q.** And the “effect of preinfusion on blood flow response to another ligand” value ([5]; rat, in vivo)?
**A.** completely blocks Lys^1 AIV-induced increases in blood flow

**Q.** And the “effect on arterial blood pressure (in words)” value ([5]; rat, in vivo)?
**A.** did not alter blood pressure or renal blood flow

**Q.** What about the “effect on renal blood flow (in words)” value ([5]; rat, in vivo) of the same molecule?
**A.** did not alter blood pressure or renal blood flow

**Q.** And the “stability on exposure to rat kidney (in words)” value [6]?
**A.** totally resistant to enzymatic degradation

**Q.** What about the “stability on exposure to rat kidney (in words)” value ([6]; listed as divalinal AIV) of the same molecule?
**A.** enhanced metabolic stability

**Q.** And the remaining intact ([6]; rat kidney membranes, 4 hr, room temperature)?
**A.** 100%

**Q.** Which “binding affinity … (in words)” value [1] does the source give for VF2 IHPF (VFIHPF) here?
**A.** very low affinity

**Q.** For `CC[C@H](C)[C@H](NC(=O)[C@@H](N)Cc1ccc(O)cc1)C(=O)N[C@@H](Cc1c[nH]cn1)C(=O)N1CCC[C@H]1C(=O)N[C@@H](Cc1ccccc1)C(=O)O` [AII(4-8), YIHPF] (H-YIHPF-OH; N-terminus and C-terminus assumed), which “decrease in binding affinity relative to AIV” value [1] is on record?
**A.** 1000 fold

**Q.** For VYIHPI [VYIHPI6], which “binding affinity … (in words)” value [1] is on record?
**A.** higher affinity than the parent VYIHPF; also recorded: higher binding affinity for the AT4 receptor than AIV

**Q.** For `CC[C@H](C)[C@H](NC)C(=O)N[C@@H](Cc1ccc(O)cc1)C(=O)N[C@H](C(=O)N[C@@H](Cc1c[nH]cn1)C(=O)N1CCC[C@H]1C(=O)N[C@@H](Cc1ccccc1)C(=O)O)[C@@H](C)CC` [CH3 -I1 YIHPF, N-methyl-Ile1 YIHPF] (H-[NMeI]YIHPF-OH), which “decrease in affinity relative to I1YIHPF” value ([1]; N-methylation of Ile1) is on record?
**A.** 67 fold

**Q.** With IYIHPF [I1 YIHPF] as the molecule, how does the “binding affinity … (in words)” value [1] read?
**A.** only a slight change (an increase) in binding affinity; also recorded: nearly the same binding affinity

**Q.** With F1 YIHPF (FYIHPF) as the molecule, how does the “decrease in binding affinity relative to AIV” value [1] read?
**A.** 4 fold

**Q.** For “V1 Y2 I3 H4 P5 F6 H7 L8 (VYIHPFHL) [AI(3-10)]”, which “decrease in binding affinity relative to AIV” value [1] is on record?
**A.** 2 fold

**Q.** With GABA-YIHPF ([GABA]YIHPF) as the molecule, how does the “decrease in binding affinity relative to AIV” value [1] read?
**A.** 250 fold

**Q.** Which results are given for VYIH?
**A.** decrease in binding relative to VYIHP [1]: 21 fold; Ki ([1]; read-out: Ki): > 500 nM

**Q.** With `CC[C@H](C)[C@H](NC(=O)[C@@H](N)Cc1ccc(O)cc1)C(=O)N[C@@H](Cc1cnc[nH]1)C(=O)N1CCC[C@H]1C(=O)N[C@@H](Cc1ccccc1)C(=O)O` [AII(4-8), YIHPF] (H-YIHPF-OH) as the molecule, how does the Ki [1, 8] read?
**A.** > 1000 nM

**Q.** What about the Ki [3] of the same molecule?
**A.** > 1000 nM

**Q.** And the Ki ([4]; competition of 0.5 nM 125I-AIV)?
**A.** 253 ± 89.1 nM

**Q.** What about the half-lives [7] of the same molecule?
**A.** 2.4 min

**Q.** With OrnYIHPF ([Orn]YIHPF) as the molecule, how does the “binding affinity … (in words)” value [1] read?
**A.** higher binding affinity than AIV

**Q.** With NleYIHPF ([Nle]YIHPF) as the molecule, how does the “maximum increase in renal blood flow” value ([5]; 0.05 pmole) read?
**A.** 19%

**Q.** What about the “maximum increase in renal blood flow” value ([5]; 0.1 pmole) of the same molecule?
**A.** 19%

**Q.** And the “maximum increase in renal blood flow” value ([5]; 10 pmole)?
**A.** 21%

**Q.** What about the “increase in renal blood flow” value ([5]; 100 pmole) of the same molecule?
**A.** 30%

**Q.** And the “effect on arterial blood pressure (in words)” value ([5]; rat, in vivo)?
**A.** no effect on mean arterial pressure

**Q.** What about the “agonist / antagonist activity (in words)” value ([5]; renal blood flow response compared to AIV, listed as Nle1 -AIV) of the same molecule?
**A.** only a partial agonist

**Q.** And the “agonist / antagonist activity (in words)” value ([5]; renal blood flow response compared to AIV, listed as Nle1 YIHPF)?
**A.** partial agonist

**Q.** Which “binding affinity … (in words)” value [1] does the source give for VYIHP [des Phe6 -AIV] here?
**A.** did not alter binding significantly

**Q.** And the “binding affinity … (in words)” value ([1]; listed as V1 Y2 I3 H4 P5)?
**A.** does not alter binding significantly

**Q.** What about the “binding to solubilized AT4 receptor (in words)” value ([3]; listed as VYIHP) of the same molecule?
**A.** retained AT4 receptor binding activity

**Q.** What about the “binding to solubilized AT4 receptor (in words)” value ([3]; listed as desPhe6 -AIV) of the same molecule?
**A.** still retained AIV binding activity

**Q.** And the “increase in Ki (decrease in affinity) compared with AIV” value [4]?
**A.** 7 fold

**Q.** What about the Ki ([4]; competition of 0.5 nM 125I-AIV, read-out: Ki) of the same molecule?
**A.** 7.3 ± 1.2 nM

**Q.** What does the source list for V[D-Y2 ]IHPF [D-Y2 AIV]?
**A.** binding affinity for the AT4 receptor (in words) [1]: very low affinity; also recorded: low binding affinity; Ki ([3]; read-out: Ki): 416 nM

**Q.** Which “binding affinity … (in words)” value [1] does the source give for “V1 Y2 I3 H4 P5 F6 H7 (VYIHPFH) [AI(3-9)]” here?
**A.** did not alter binding significantly

**Q.** And the “binding affinity … (in words)” value ([1]; listed as V1 Y2 I3 H4 P5 F6 H7)?
**A.** does not alter binding

**Q.** With “VPIHYF [Phe2 Tyr6 AIV, positions of the Phe and Tyr residues in AIV reversed]” as the molecule, how does the “binding affinity … (in words)” value [1] read?
**A.** very low binding affinity
